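The compound was tested at five concentrations on cells cultured in 96-well plates, with a 48-hour exposure period. GI50 = concentration required for 50% inhibition of growth. The concentration for full growth arrest is given as TGI.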
How the values were obtained:
Test in all cases: NCI-60 cell line screen, 48 h
786-0 renal = system: 786-0 renal
A498 renal = system: A498 renal
ACHN renal = system: ACHN renal
BT-549 breast = system: BT-549 breast
CAKI-1 renal = system: CAKI-1 renal
COLO 205 colon = system: COLO 205 colon
DU-145 prostate = system: DU-145 prostate
EKVX NSCLC = system: EKVX NSCLC
HCC-2998 colon = system: HCC-2998 colon
HCT-116 colon = system: HCT-116 colon
HCT-15 colon = system: HCT-15 colon
HL-60(TB) leukemia = system: HL-60(TB) leukemia
HOP-62 NSCLC = system: HOP-62 NSCLC
HOP-92 NSCLC = system: HOP-92 NSCLC
HS 578T breast = system: HS 578T breast
HT29 colon = system: HT29 colon
IGROV1 ovarian = system: IGROV1 ovarian
K-562 leukemia = system: K-562 leukemia
KM12 colon = system: KM12 colon
LOX IMVI melanoma = system: LOX IMVI melanoma
M14 melanoma = system: M14 melanoma
MALME-3M melanoma = system: MALME-3M melanoma
MCF7 breast = system: MCF7 breast
MDA-MB-231 breast = system: MDA-MB-231 breast
MDA-MB-435 = system: MDA-MB-435
MOLT-4 leukemia = system: MOLT-4 leukemia
NCI-H226 lung = system: NCI-H226 lung
NCI-H23 lung = system: NCI-H23 lung
NCI-H460 lung = system: NCI-H460 lung
NCI-H522 lung = system: NCI-H522 lung
NCI/ADR-RES ovarian = system: NCI/ADR-RES ovarian
OVCAR-3 ovarian = system: OVCAR-3 ovarian
OVCAR-4 ovarian = system: OVCAR-4 ovarian
OVCAR-5 ovarian = system: OVCAR-5 ovarian
OVCAR-8 ovarian = system: OVCAR-8 ovarian
PC-3 prostate = system: PC-3 prostate
SF-268 CNS = system: SF-268 CNS
SF-295 CNS = system: SF-295 CNS
SF-539 CNS = system: SF-539 CNS
SK-MEL-2 melanoma = system: SK-MEL-2 melanoma
SK-MEL-28 melanoma = system: SK-MEL-28 melanoma
SK-MEL-5 melanoma = system: SK-MEL-5 melanoma
SK-OV-3 ovarian = system: SK-OV-3 ovarian
SN12C renal = system: SN12C renal
SNB-19 CNS = system: SNB-19 CNS
SNB-75 CNS = system: SNB-75 CNS
SR leukemia = system: SR leukemia
SW-620 colon = system: SW-620 colon
T-47D breast = system: T-47D breast
TK-10 renal = system: TK-10 renal
U251 CNS = system: U251 CNS
UACC-257 melanoma = system: UACC-257 melanoma
UACC-62 melanoma = system: UACC-62 melanoma
UO-31 renal = system: UO-31 renal

## C=C(C)[C@@H]1C/C=C(\COC(=O)[C@H](OC(C)=O)C(NC(=O)c2ccccc2)c2ccccc2)CC[C@H]2O[C@]2(C)CC/C=C(\C)CC1 (stereo partly drawn)
786-0 renal
  GI50: 18.5 µM
  TGI: > 50 µM
A498 renal
  GI50: 13.1 µM
  TGI: 44.5 µM
ACHN renal
  GI50: 14.6 µM
  TGI: > 50 µM
BT-549 breast
  GI50: 12.9 µM
  TGI: 45.4 µM
CAKI-1 renal
  GI50: 8.64 µM
  TGI: 17.8 µM
COLO 205 colon
  GI50: 11.2 µM
  TGI: 25.8 µM
DU-145 prostate
  GI50: 19.3 µM
  TGI: > 50 µM
EKVX NSCLC
  GI50: 18.6 µM
  TGI: > 50 µM
HCC-2998 colon
  GI50: 15.1 µM
  TGI: 45.4 µM
HCT-116 colon
  GI50: 12.3 µM
  TGI: 38.1 µM
HCT-15 colon
  GI50: 12.4 µM
  TGI: > 50 µM
HL-60(TB) leukemia
  GI50: 4.2 µM
  TGI: > 50 µM
HOP-62 NSCLC
  GI50: 31.2 µM
  TGI: > 50 µM
HOP-92 NSCLC
  GI50: 31.8 µM
  TGI: > 50 µM
HS 578T breast
  GI50: 15.2 µM
  TGI: 49.4 µM
HT29 colon
  GI50: 13.2 µM
  TGI: 31.8 µM
IGROV1 ovarian
  GI50: 17.7 µM
  TGI: > 50 µM
K-562 leukemia
  GI50: 30.8 µM
  TGI: > 50 µM
KM12 colon
  GI50: 18.7 µM
  TGI: > 50 µM
LOX IMVI melanoma
  GI50: 8.98 µM
  TGI: 19.3 µM
M14 melanoma
  GI50: 20.7 µM
  TGI: > 50 µM
MALME-3M melanoma
  GI50: 14.3 µM
  TGI: 42.6 µM
MCF7 breast
  GI50: 8.94 µM
  TGI: 22.1 µM
MDA-MB-231 breast
  GI50: 12 µM
  TGI: > 50 µM
MDA-MB-435
  GI50: 16.8 µM
  TGI: > 50 µM
MOLT-4 leukemia
  GI50: 17.6 µM
  TGI: > 50 µM
NCI-H226 lung
  GI50: 21.7 µM
  TGI: > 50 µM
NCI-H23 lung
  GI50: 19.3 µM
  TGI: > 50 µM
NCI-H460 lung
  GI50: 15.5 µM
  TGI: > 50 µM
NCI-H522 lung
  GI50: 12.1 µM
  TGI: > 50 µM
NCI/ADR-RES ovarian
  GI50: 18.1 µM
  TGI: > 50 µM
OVCAR-3 ovarian
  GI50: 12.2 µM
  TGI: 44.5 µM
OVCAR-4 ovarian
  GI50: 15.4 µM
  TGI: > 50 µM
OVCAR-5 ovarian
  GI50: 32.1 µM
  TGI: > 50 µM
OVCAR-8 ovarian
  GI50: 37.7 µM
  TGI: > 50 µM
PC-3 prostate
  GI50: 13.3 µM
  TGI: > 50 µM
SF-268 CNS
  GI50: 18.2 µM
  TGI: > 50 µM
SF-295 CNS
  GI50: 13.2 µM
  TGI: > 50 µM
SF-539 CNS
  GI50: 11.2 µM
  TGI: 27.1 µM
SK-MEL-2 melanoma
  GI50: 16.7 µM
  TGI: > 50 µM
SK-MEL-28 melanoma
  GI50: 16.6 µM
  TGI: > 50 µM
SK-MEL-5 melanoma
  GI50: 11.8 µM
  TGI: 28 µM
SK-OV-3 ovarian
  GI50: > 50 µM
  TGI: > 50 µM
SN12C renal
  GI50: 10.3 µM
  TGI: 23 µM
SNB-19 CNS
  GI50: 27.8 µM
  TGI: > 50 µM
SNB-75 CNS
  GI50: 17.6 µM
  TGI: > 50 µM
SR leukemia
  GI50: 23.3 µM
  TGI: > 50 µM
SW-620 colon
  GI50: 16.8 µM
  TGI: 49.7 µM
T-47D breast
  GI50: 23.1 µM
  TGI: > 50 µM
TK-10 renal
  GI50: 18.8 µM
  TGI: > 50 µM
U251 CNS
  GI50: 14.9 µM
  TGI: > 50 µM
UACC-257 melanoma
  GI50: 23.3 µM
  TGI: > 50 µM
UACC-62 melanoma
  GI50: 16.8 µM
  TGI: > 50 µM
UO-31 renal
  GI50: 20.6 µM
  TGI: > 50 µM

From PubChem BioAssay (NCI)
